According to ChEMBL document CHEMBL1146777, “Interaction with the S1 beta-pocket of urokinase: 8-heterocycle substituted and 6,8-disubstituted 2-naphthamidine urokinase inhibitors” (Bioorg Med Chem Lett, 2004):

What was measured:
[1] = Binding affinity against trypsin
[2] = target: Serine protease 1 (Homo sapiens, UniProt P07477); assay: Binding affinity against trypsin
[3] = target: Plasminogen (Homo sapiens, UniProt P00747); assay: Binding affinity against plasmin
[4] = target: Prothrombin (Homo sapiens, UniProt P00734); assay: Binding affinity against thrombin
[5] = target: Tissue-type plasminogen activator (Homo sapiens, UniProt P00750); assay: Binding affinity towards tissue type plasminogen activator
Chain of Tissue-type plasminogen activator (P00750 whole entry): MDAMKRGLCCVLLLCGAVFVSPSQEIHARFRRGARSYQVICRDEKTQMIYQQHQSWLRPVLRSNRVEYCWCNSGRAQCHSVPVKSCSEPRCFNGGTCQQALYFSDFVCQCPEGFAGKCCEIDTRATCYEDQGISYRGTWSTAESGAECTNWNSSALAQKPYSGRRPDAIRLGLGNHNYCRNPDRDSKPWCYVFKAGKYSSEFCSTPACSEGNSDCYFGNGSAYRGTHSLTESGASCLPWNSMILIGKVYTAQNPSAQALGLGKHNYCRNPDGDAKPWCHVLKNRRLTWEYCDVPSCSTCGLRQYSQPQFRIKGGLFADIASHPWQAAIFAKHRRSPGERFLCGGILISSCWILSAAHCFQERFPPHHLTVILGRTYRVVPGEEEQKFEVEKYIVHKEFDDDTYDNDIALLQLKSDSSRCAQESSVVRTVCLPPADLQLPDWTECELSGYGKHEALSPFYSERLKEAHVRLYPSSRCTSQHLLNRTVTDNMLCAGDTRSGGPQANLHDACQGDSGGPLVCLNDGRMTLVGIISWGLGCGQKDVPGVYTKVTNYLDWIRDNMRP

[6] = target: Urokinase-type plasminogen activator (Homo sapiens, UniProt P00749)
Description: Binding affinity towards Urokinase-type plasminogen activator (urokinase)

Chain of Plasminogen (P00747 97-580 limits assumed): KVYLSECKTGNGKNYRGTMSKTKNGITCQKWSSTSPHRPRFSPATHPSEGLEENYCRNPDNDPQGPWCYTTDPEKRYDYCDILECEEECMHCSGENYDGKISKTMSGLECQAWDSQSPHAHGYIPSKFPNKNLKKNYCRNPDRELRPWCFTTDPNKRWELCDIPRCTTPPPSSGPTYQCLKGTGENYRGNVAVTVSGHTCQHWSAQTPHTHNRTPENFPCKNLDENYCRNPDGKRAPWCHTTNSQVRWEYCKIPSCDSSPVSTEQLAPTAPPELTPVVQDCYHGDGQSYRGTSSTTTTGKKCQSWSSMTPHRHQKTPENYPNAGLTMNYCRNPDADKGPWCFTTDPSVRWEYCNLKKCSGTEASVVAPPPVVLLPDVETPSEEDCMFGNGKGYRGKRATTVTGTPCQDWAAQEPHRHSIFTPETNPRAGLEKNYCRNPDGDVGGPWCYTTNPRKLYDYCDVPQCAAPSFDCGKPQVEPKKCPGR
Chain of Plasminogen (P00747 581-810 limits assumed): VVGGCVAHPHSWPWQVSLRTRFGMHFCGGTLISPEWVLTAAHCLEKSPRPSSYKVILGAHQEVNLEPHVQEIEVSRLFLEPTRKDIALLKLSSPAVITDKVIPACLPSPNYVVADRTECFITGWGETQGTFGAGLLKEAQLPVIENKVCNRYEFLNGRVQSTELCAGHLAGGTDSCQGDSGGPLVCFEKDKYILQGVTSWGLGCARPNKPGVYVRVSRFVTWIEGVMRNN
Chain of Serine protease 1 (P07477 whole entry): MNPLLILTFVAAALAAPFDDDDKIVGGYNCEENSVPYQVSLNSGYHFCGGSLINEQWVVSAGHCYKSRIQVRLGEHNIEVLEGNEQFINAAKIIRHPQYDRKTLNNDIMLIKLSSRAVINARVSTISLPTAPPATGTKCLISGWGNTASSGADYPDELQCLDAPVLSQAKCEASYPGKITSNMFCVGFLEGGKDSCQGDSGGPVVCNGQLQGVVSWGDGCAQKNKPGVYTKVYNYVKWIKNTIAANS

Structure (SMILES) | Ki [1] | Ki [2] | Ki [3] | Ki [4] | Ki [5] | Ki [6]
N=C(N)c1ccc2cc(C(=O)Nc3ccccc3)ccc2c1 | 0.33 µM | – | – | – | – | –
N=C(N)c1ccc2cccc(Nc3ncccn3)c2c1 | – | 1.7 µM | 3.8 µM | 3.2 µM | 24 µM | –
[H]/N=C(/N)c1ccc2cc(C(=O)Nc3ccccc3)cc(Nc3ncccn3)c2c1 | – | 0.04 µM | 0.09 µM | 0.17 µM | 0.81 µM | 0.002 µM
COc1ccc2ccc(C(=N)N)cc2c1C1CCOC1 (stereo unspecified) | – | 0.32 µM | 6 µM | 0.45 µM | 7.4 µM | –
COc1ccc2ccc(C(=N)N)cc2c1-c1ccoc1 | – | 1.2 µM | 9.4 µM | 1.3 µM | 18 µM | –
COc1ccc2ccc(C(=N)N)cc2c1-c1cnn(C)c1 | – | – | – | – | – | 4.6 µM
CC(C)Oc1cccc(NC(=O)c2cc(C3CCOC3)c3cc(C(=N)N)ccc3c2)c1 (stereo unspecified) | – | 0.012 µM | 0.19 µM | 1.1 µM | 0.13 µM | –
N=C(N)c1ccc2cc(C(=O)Nc3ccc(CN)cc3)cc(Nc3ncccn3)c2c1 | – | 0.02 µM | 0.15 µM | 0.94 µM | 0.68 µM | –
N=C(N)c1ccc2cc(C(=O)Nc3ccccc3)cc(C3CCOC3)c2c1 (stereo unspecified) | – | 0.03 µM | 0.4 µM | 0.36 µM | 0.87 µM | 0.106 µM
CCS(=O)(=O)c1cc(-c2cc(C(=O)Nc3ccccc3)cc3ccc(C(=N)N)cc23)co1 | – | 0.0035 µM | 0.056 µM | 0.29 µM | 8.3 µM | –
CCSc1cc(-c2cc(C(=O)Nc3ccccc3)cc3ccc(C(=N)N)cc23)co1 | – | 0.011 µM | 0.053 µM | 0.12 µM | 3.3 µM | 0.04 µM
CCS(=O)(=O)c1cc(-c2cc(C(=O)Nc3cccc(OC4CCCC4)c3)cc3ccc(C(=N)N)cc23)co1 | – | 0.003 µM | 0.038 µM | 0.61 µM | 1.6 µM | 0.0021 µM
COc1ccc2ccc(C(=N)N)cc2c1-c1cnn(S(C)(=O)=O)c1 | – | 2.7 µM | 8.5 µM | 7.1 µM | > 100 µM | –
N=C(N)c1ccc2cc(C(=O)Nc3ccccc3)cc(-c3ccoc3)c2c1 | – | 0.045 µM | 0.32 µM | 0.13 µM | 0.18 µM | 0.091 µM
N=C(N)c1ccc2ccccc2c1 | 7.8 µM | – | – | – | > 100 µM | –
N=C(N)c1ccc2cccc(N)c2c1 | – | 0.2 µM | 6.6 µM | 5.2 µM | 27 µM | –
